Data: patent US20230124548A1, “Therapeutic Methods And Uses Thereof” (Eustralis Pharmaceuticals Limited (Trading As Pressura …, priority 2019, published 2023)
Like-named read-outs stand apart in the source and are kept apart here.

How the values were obtained:
central NK1 receptors = molecular target: T1, central NK1 receptors (Homo sapiens, UniProt P25103); assay: Phase 1 apomorphine challenge study: blocking of apomorphine induced emesis in healthy volunteers; type: in vivo; conditions: for Average Number of Retches or Vomits / Number of Retches (Events) / Number of Retches (Subjects) / Number of Vomits (Subjects) / Number of Vomits (Events): N = 5
T1 construct: from tissue; host or cells: central nervous system of healthy human volunteers (in vivo)
T1 sequence (P25103 whole entry): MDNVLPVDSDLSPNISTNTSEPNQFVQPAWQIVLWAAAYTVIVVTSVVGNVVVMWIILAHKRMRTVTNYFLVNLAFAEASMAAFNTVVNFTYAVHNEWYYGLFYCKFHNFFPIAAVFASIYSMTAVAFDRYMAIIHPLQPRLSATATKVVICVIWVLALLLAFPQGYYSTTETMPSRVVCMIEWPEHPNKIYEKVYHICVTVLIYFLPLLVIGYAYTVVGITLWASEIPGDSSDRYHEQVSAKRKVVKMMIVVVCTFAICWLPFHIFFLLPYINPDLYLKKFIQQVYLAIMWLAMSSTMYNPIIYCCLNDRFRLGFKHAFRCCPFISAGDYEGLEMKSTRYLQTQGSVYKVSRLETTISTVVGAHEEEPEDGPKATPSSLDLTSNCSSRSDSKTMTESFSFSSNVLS
Protocol: (§1) A pharmacodynamic study to assess functional blocking of central NK1 receptors was performed in healthy volunteers. This was done by testing the efficacy of the compound in blocking apomorphine induced emesis. This study indicates the need for a minimum concentration of the initial peak at infusion to obtain efficacious levels, rather than minimal plasma-levels at the time of apomorphine challenge.
(§2) In the phase 1 apomorphine challenge study the ability of the compound to block emesis induced by apomorphine was tested in healthy volunteers. […] At neither time point did subjects require rescue medication to prevent uncontrolled vomiting. On the other hand, when the apomorphine challenge was performed 2 hours after a 30 mg dose (n=5), an average of 4.2 retches and vomits were observed, which would have been even higher had two of five subjects not received rescue medication to block the apomorphine effects. Importantly the plasma concentration of the Compound 2 hours after the 30 mg dose was 60% higher than the plasma concentration 20 hours after the 90 mg dose.

[1] = Intracranial pressure (ICP) curves in clinical trial patients, slow 2-hour infusion; type: in vivo, human; conditions: two patients, slow infusion over 2 hours
Protocol: In order to avoid any potential safety issues, the infusion in human clinic trials was slowed down to 2 hours to generate the same AUC but a lower Cmax.
However two patients were treated in a clinical trial, using a slow infusion rate over a timespan of 2 hours.

[2] = Plasma concentrations in the apomorphine challenge study; type: in vivo, human
Protocol: as §1, §2

[3] = Solubility assessment and pH of solution; type: physicochemical
Protocol: Ethanol was also assessed as part of this study.

[4] = 30 mg, apomorphine challenge 2 h after dose
[5] = 90 mg, apomorphine challenge 2 h after dose
[6] = 90 mg, apomorphine challenge 20 h after dose

Cc1ccccc1-c1cc(N2CCN(C)CC2)ncc1C(=O)N(C)Cc1cc(C(F)(F)F)cc(C(F)(F)F)c1 [Compound of Formula (I) 2HCl (R1 = CH3)]
Average Number of Retches or Vomits (central NK1 receptors; [4]): 4.2
Number of Retches (Events) (central NK1 receptors; [4]): 9
Number of Retches (Subjects) (central NK1 receptors; [4]): 2
Number of Vomits (Subjects) (central NK1 receptors; [4]): 3
Number of Vomits (Events) (central NK1 receptors; 30 mg, apomorphine challenge 2 h after dose, 2 of 5 subjects rescued): > 12
Average Number of Retches or Vomits (central NK1 receptors; [5]): 1.4
Number of Retches (Events) (central NK1 receptors; [5]): 5
Number of Retches (Subjects) (central NK1 receptors; [5]): 2
Number of Vomits (Events) (central NK1 receptors; [5]): 2/2
Number of Vomits (Subjects) (central NK1 receptors; [5]): 2/2
Average Number of Retches or Vomits (central NK1 receptors; [6]): 2.6
Number of Retches (Events) (central NK1 receptors; [6]): 12
Number of Retches (Subjects) (central NK1 receptors; [6]): 4
Number of Vomits (Events) (central NK1 receptors; [6]): 1/1
Number of Vomits (Subjects) (central NK1 receptors; [6]): 1/1
duration of reduction of retches/vomits once NK1 blockade is achieved (central NK1 receptors; after peak level of at least 1000-1300 ng/ml): ≥ 20 h
efficacy on ICP (ICP curves) [1]: no or minimal efficacy
plasma concentration 2 hours after the 30 mg dose, higher than plasma concentration 20 hours after the 90 mg dose ([2]; 30 mg/2 h versus 90 mg/20 h): 60%
Cmax ([2]; human, plasma, intravenous, 30 mg, apomorphine challenge 2 h after dose, N = 5, read-out: Cmax at end of infusion): 252 ng/mL
Cmax ([2]; human, plasma, intravenous, 90 mg, apomorphine challenge 2 h after dose, N = 5, read-out: Cmax at end of infusion): 1040 ng/mL
Cmax ([2]; human, plasma, intravenous, 90 mg, apomorphine challenge 20 h after dose, N = 5, read-out: Cmax at end of infusion): 1270 ng/mL
Cmax ([2]; human, plasma, intravenous, 90 mg, healthy volunteers, apomorphine challenge, read-out: minimum initial peak level (Cmax) at infusion to obtain efficacious levels / central NK1 blockade): 1000 to 1300 ng/mL
concentration at 2 h ([2]; human, plasma, intravenous, 30 mg, apomorphine challenge 2 h after dose, N = 5, read-out: Conc. at challenge): 112 ng/mL
concentration at 2 h ([2]; human, plasma, intravenous, 90 mg, apomorphine challenge 2 h after dose, N = 5, read-out: Conc. at challenge): 356 ng/mL
concentration at 20 h ([2]; human, plasma, intravenous, 90 mg, apomorphine challenge 20 h after dose, N = 5, read-out: Conc. at challenge): 69 ng/mL
Solubility in Water, Result ([3]; 5 mg/mL (50 mg in 10 mL water)): Very soluble
pH of solution ([3]; 5 mg/mL in water): 2.39
Solubility in Water, Result ([3]; 10 mg/mL (100 mg in 10 mL water)): Very soluble
pH of solution ([3]; 10 mg/mL in water): 2.14
Solubility in Water, Result ([3]; 15 mg/mL (150 mg in 10 mL water)): Soluble
pH of solution ([3]; 15 mg/mL in water): 2.02
Solubility in Water, Result ([3]; 20 mg/mL (200 mg in 10 mL water)): Soluble
pH of solution ([3]; 20 mg/mL in water): 1.87
Solubility in Water, Result ([3]; 25 mg/mL (250 mg in 10 mL water)): Soluble
pH of solution ([3]; 25 mg/mL in water): 1.81
Solubility in Water, Result ([3]; 30 mg/mL (300 mg in 10 mL water)): Soluble
pH of solution ([3]; 30 mg/mL in water): 1.75
Solubility in Water, Result ([3]; 35 mg/mL (350 mg in 10 mL water)): Soluble
pH of solution ([3]; 35 mg/mL in water): 1.72
Solubility in Water, Result ([3]; 40 mg/mL (400 mg in 10 mL water)): Soluble
pH of solution ([3]; 40 mg/mL in water): 1.66
Solubility in Water, Result ([3]; 45 mg/mL (450 mg in 10 mL water)): Soluble
pH of solution ([3]; 45 mg/mL in water): 1.54
Solubility in Water, Result ([3]; 50 mg/mL (500 mg in 10 mL water)): Soluble
pH of solution ([3]; 50 mg/mL in water): 1.52
Solubility ([3]; 50 mg/mL, stated after 'Ethanol was also assessed', solvent not explicit, golden yellow colour): freely soluble
